Data: US20250213647A1, “CHEMOKINE RECEPTORS AND ALPHA1 ADRENERGIC RECEPTORS/VASOPRESSIN RECEPTORS 1A HETEROMERS AS DRUG TARGETS FOR DISEASE” (UNIVERSITY OF SOUTH FLORIDA, priority 2022, published 2025)

What was measured:
[1] = system: CCR8; assay: Chemotaxis assay, human monocytes toward CCL1 (CCR8-mediated); assay type: cell-based
Method: (§1) Cell migration was measured employing the Neuroprobe (Gaithersburg, MD, USA) ChemoTx® Disposable Chemotaxis System. A 96-well Boyden-chamber (30 μL/well, 8 μm pores, 1×10^5 pores/cm^2 pore density) was selected for all chemotaxis experiments. Bottom wells of the Boyden-chamber were loaded with 30 μL of test substances at various concentrations. Top wells of the membrane were loaded with 25 μL of THP-1 cells, THP-1_ADRA1B^KO, wild type THP-1 cells after clonal expansion (=control for THP-1_ADRA1B^KO) or freshly isolated monocytes (200 cells/μL). THP-1 cells were suspended in depleted RPMI1640 (0.5% HyClone™ fetal bovine serum, Sigma); Freshly isolated monocytes were suspended in RPMI1640 (0.5% human platelet poor plasma, Sigma). After 3 hours, transmigrated cells were counted utilizing the Cytation 1 plate reader (BioTek) by direct imaging in high contrast bright field (4×) and post-imaging particle analyses with Gen5 (v3.05) Imaging & Microscopy Software (BioTek). The chemotactic index (CI) was calculated as the ratio of cells that transmigrated in the presence versus the absence of the test solutions.

[2] = biological target: T1, CCR2 (Homo sapiens, UniProt P41597); parameters: host or cells: THP-1; conditions: previous finding (Enten, 2022); cited from earlier work
[3] = system: heteromeric complexes between α1B/D-ARs and CCR1, CCR2, CXCR4; assay: Proximity ligation assay, receptor-receptor interactions on THP-1 cells; conditions: 10 μM, 30 min at 37° C.; FIG. 8
[4] = biological target: T1, CCR2; assay: Chemotaxis assay, human monocytes toward CCL2 (CCR2-mediated); assay type: cell-based; parameters: host or cells: THP-1; conditions: mean±SE, read-out: IC50 for inhibition of CCR2-mediated chemotaxis
Method: as §1

[5] = system: α1B/D-AR, CCR1, CCR2, CXCR4, CCR8; assay: Proximity ligation assay, individual receptors on THP-1 cells; conditions: 10 μM, 30 min at 37° C., FIG. 6; for cell surface expression of α1B/D-AR, CCR1, CCR2 and CXCR4 (PLA signals): vs vehicle
[6] = system: CCR1; assay: Chemotaxis assay, human monocytes toward CCL23 (CCR1-mediated); assay type: cell-based; conditions: mean±SE, read-out: IC50 for inhibition of CCR1-mediated chemotaxis
Method: as §1

[7] = biological target: T1, CCR2; assay: Gαi activation assay (TRUPATH BRET), HEK293T cells transfected with CCR2 plus pcDNA3 (CCR2 alone); assay type: cell-based; conditions: cells transfected with CCR2 alone; 10 μM PE or PT; FIG. 4B, 4E
Method: (§2) HEK293T cells were plated in a 6-well plate and transfected with 0.2 μg each of Gαi1-Rluc8, Gβ3 and Gγ9-GFP2 (Trupath) together with 0.2 μg of mouse or human CCR2 with either pcDNA3.1 or α1b-AR. One day after transfection, cells were trypsinized and replated to 96-well poly-L lysine precoated plates. After overnight incubation, cells were replaced with 0.1% glucose/PBS. Prolume Purple (NanoLight Tech.) or coelenterazine 400a in a final concentration of 5 μM were added in experiments with human or mouse CCR2, respectively, and incubated at room temperature for 3 min. Ligands at various concentrations were added to cells and incubated at room temperature for 5 min before luminescence was measured at 410 nm and 515 nm. […] The BRET changes were calculated by subtracting the BRET signal of untreated cells.

[8] = system: CXCR4; assay: Chemotaxis assay, human monocytes toward CXCL12 (CXCR4-mediated); assay type: cell-based; conditions: mean±SE, read-out: IC50 for inhibition of CXCR4-mediated chemotaxis
Method: as §1

[9] = biological target: T1, CCR2; assay: BRET assay for β-arrestin recruitment, HEK293T with CCR2-Rluc and β-arrestin-YFP without α1b-AR; assay type: cell-based; conditions: 10 μM PE, PT or 100 nM INCB3284, FIG. 5C
Method: (§3) β-arrestin recruitment was measured by BRET, as described (Armando, 2014; Berchiche, 2011). In brief, HEK293T cells were plated in a 6-well plate and transfected with 0.1 μg of CCR2-RluII and 1.9 μg β-arrestin-YFP with 0.1 μg pcDNA3.1 or α1b-AR. One day after transfection, cells were re-plated into 96-well poly-L lysine precoated plates. After overnight incubation, cells were replaced with 0.1% glucose/PBS. Coelenterazine H in a final concentration of 5 μM was added to cells and incubated at room temperature for 3 min. […] The BRET changes were calculated by subtracting the BRET signal of untreated cells.

[10] = biological target: T1, CCR2; assay: CCR2 internalization in THP-1 cells (flow cytometry); assay type: cell-based; parameters: host or cells: THP-1; conditions: 100 nM CCL2 plus 1 μM PE, 0-45 min at 37° C.; FIG. 7A/B
Method: To examine receptor internalization in THP-1 cells, cells were incubated with 100 nM CCL2 or with 100 nM CCL2 plus 1 μM PE for 0-45 min at 37° C. Cells were then cooled on ice and washed with 50 mM glycine buffer, pH 2.7, 150 mM NaCl, followed by washing with ice-cold PBS. Cell surface CCR2 was probed with anti-CCR2 and corresponding secondary Alexa 488-conjugated antibodies. Receptor cell surface expression levels are examined by flow cytometry and expressed as the median fluorescence intensity (MFI) in percent of the MFI measured at 0 min (=100%).

[11] = system: CR heteromerization partners of α1B/D-ARs (CCR1, CCR2, CXCR4); assay: Chemotaxis assay, human monocytes, CR heteromerization partners of α1B/D-ARs taken together; assay type: cell-based; conditions: FIG. 17B
Method: as §1

[12] = system: leukocyte infiltration into dorsal air pouches; assay: Murine air pouch model, leukocyte infiltration; assay type: in vivo, C57BL/6 mice; conditions: co-injected into the air pouch; phenylephrine 10-100 mg/kg, phentolamine 5-50 mg/kg; 24 h; FIG. 9B-D
Method: All procedures were performed according to the National Institutes of Health Guidelines for Use of Laboratory Animals and were approved by the Institutional Animal Care and Use Committee of the University of South Florida (IS00010570). Male and female C57BL/6 mice (20-25 g) were obtained from Envigo (Indianapolis, IN). Six days prior to the start of the experiments, mice were anesthetized with 1.7% sevoflurane, the dorsal cervical/thoracic region was shaved, disinfected with 70% ethanol and 3 mL of sterile air were injected subcutaneously (s.c.) to create an air pouch. […] 5 ml ice cold lavage fluid was injected into each air pouch using a syringe with a 23-G, 1-inch needle, the air pouch was gently massaged for 60 seconds, the lavage fluid was harvested using the same syringe and needle and the recovered volume was recorded. […] Erythrocytes in the cell pellets were lysed with Invitrogen 1× RBC lysis buffer and the harvested air pouch cells analyzed by flow cytometry.
Harvested air pouch cells were incubated with APC-conjugated anti-mouse CD45 or APC-conjugated immunoglobulin G 2B (IgG2B; isotype control) for 145 min in the dark at room temperature. […] Cells were then washed again, resuspended in PBS, and the cell-associated light scatter and fluorescence were determined with a LSRII instrument (Becton Dickinson). […]

[13] = biological target: T2, α1b-AR:CCR2 heteromer (Homo sapiens, UniProt P35368+P41597); assay: Gαi activation assay (TRUPATH BRET), HEK293T cells transfected with CCR2 plus α1b-AR; assay type: cell-based; conditions: for Gαi1 activation by the ligand alone: cells transfected with α1b-AR alone, CCR2 alone or CCR2 plus α1b-AR, FIG. 4A
T2 construct: expressed in transfected cells; host or cells: HEK293T
Method: as §2

[14] = biological target: CCR2:α1b-AR heteromers (Homo sapiens, UniProt P35368+P41597); assay: BRET assay for β-arrestin recruitment, HEK293T co-expressing CCR2-Rluc, β-arrestin-YFP and α1b-AR; assay type: cell-based; parameters: expressed in transfected cells; conditions: CCL2 plus 10 μM ligand; FIG. 5D
Method: as §3

T2 sequence (P41597 whole entry): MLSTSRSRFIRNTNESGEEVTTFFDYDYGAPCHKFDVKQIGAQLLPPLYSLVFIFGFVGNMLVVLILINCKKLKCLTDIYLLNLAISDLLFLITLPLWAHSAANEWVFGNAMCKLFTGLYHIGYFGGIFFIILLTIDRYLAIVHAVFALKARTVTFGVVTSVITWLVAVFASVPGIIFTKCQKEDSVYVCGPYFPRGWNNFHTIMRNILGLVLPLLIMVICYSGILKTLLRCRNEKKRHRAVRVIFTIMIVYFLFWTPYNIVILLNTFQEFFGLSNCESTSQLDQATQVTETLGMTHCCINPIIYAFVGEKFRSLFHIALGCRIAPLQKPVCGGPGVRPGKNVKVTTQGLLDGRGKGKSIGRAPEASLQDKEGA
T2 sequence (P35368 whole entry): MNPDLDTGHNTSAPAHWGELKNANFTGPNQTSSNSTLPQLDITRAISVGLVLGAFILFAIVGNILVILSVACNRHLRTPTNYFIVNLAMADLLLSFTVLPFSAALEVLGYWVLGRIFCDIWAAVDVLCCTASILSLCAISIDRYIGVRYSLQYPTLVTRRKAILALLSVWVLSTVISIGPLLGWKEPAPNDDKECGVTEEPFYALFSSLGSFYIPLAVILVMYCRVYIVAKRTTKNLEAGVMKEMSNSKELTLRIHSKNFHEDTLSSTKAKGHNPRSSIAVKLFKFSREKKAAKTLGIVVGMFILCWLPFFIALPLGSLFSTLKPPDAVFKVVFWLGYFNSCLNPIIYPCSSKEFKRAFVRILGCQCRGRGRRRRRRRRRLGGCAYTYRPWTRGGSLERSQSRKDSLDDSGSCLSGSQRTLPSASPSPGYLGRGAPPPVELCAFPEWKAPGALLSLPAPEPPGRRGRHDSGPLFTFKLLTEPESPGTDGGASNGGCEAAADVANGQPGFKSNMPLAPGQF
T1 sequence (P41597 whole entry): as the sequence (P41597 whole entry) above
CCR2:α1b-AR heteromers, sequence (P41597 whole entry): as above
CCR2:α1b-AR heteromers, sequence (P35368 whole entry): as the sequence (P35368 whole entry) above

Top plateau, β-arrestin recruitment BRET in the presence of the ligand [14]	bottom plateau, CCL2-induced Gαi activation in the presence of the ligand ([13]; CCL2 plus 10 μM PT, FIG. 4F)	SMILES	CCL1-induced chemotaxis [1]	binding affinity of CCR2 for CCL2 [2]	heteromeric complexes between α1B/D-ARs and their chemokine heteromerization partners (PLA signals) [3]	IC50 [4]	expression of CCR8 (PLA signals) [5]	cell surface expression of α1B/D-AR, CCR1, CCR2 and CXCR4 (PLA signals) [5]	IC50 [6]	effect on CCL2-induced Gαi1 activation [7]	IC50 [8]	effect on the CCL2-induced BRET signal (CCR2-Rluc / β-arrestin-YFP) [9]	CCR2 cell surface expression, CCL2 plus ligand vs CCL2 alone [10]	inhibition of chemotaxis mediated via CR heteromerization partners of α1B/D-ARs [11]	leukocyte infiltration induced by LPS, CCL2 or CXCL12 [12]	bottom plateau, CCL2-induced Gαi activation in the presence of the ligand ([13]; CCL2 plus 1 μM NE, FIG. 4D)	bottom plateau, CCL2-induced Gαi activation in the presence of the ligand ([13]; CCL2 plus 10 μM PE, FIG. 4C)	Gαi1 activation by the ligand alone [13]
–	–	CNC[C@H](O)c1cccc(O)c1 [phenylephrine]	not affected	did not affect	reduced	37 ± 26 nM	not affected	reduced	12 ± 8 nM	did not affect	6 ± 3 nM	not affected	significantly reduced CCR2 expression	60-77%	inhibited in a dose-dependent manner	−0.031±0.002	−0.03±0.002	did not activate Gαi1
0.061±0.002	−0.033±0.002	Cc1ccc(N(CC2=NCCN2)c2cccc(O)c2)cc1 [phentolamine]	–	did not affect	reduced	–	–	did not affect	–	did not affect	–	not affected	–	–	inhibited in a dose-dependent manner	–	–	did not activate Gαi1
